According to ChEMBL document CHEMBL4837206, “Synthesis and biological evaluation of novel isoxazole-piperazine hybrids as potential anti-cancer agents with inhibitory effect on liver cancer stem cells” (Eur J Med Chem, 2021):
Active and inactive are the calls of the source. The calls are words filed in the database; no cut-off is given here.

Experiments:
[1] = molecular target: T1, Mitogen-activated protein kinase; ERK1/ERK2 (Homo sapiens) (UniProt P27361+P28482); assay: Inhibition of ERK1/2 phosphorylation at T202/Y204 residue in human Mahlavu cells at 5 uM measured after 72 hrs by Western blot analysis; assay type: cell-based
T1 sequence (P27361 whole entry, looked up): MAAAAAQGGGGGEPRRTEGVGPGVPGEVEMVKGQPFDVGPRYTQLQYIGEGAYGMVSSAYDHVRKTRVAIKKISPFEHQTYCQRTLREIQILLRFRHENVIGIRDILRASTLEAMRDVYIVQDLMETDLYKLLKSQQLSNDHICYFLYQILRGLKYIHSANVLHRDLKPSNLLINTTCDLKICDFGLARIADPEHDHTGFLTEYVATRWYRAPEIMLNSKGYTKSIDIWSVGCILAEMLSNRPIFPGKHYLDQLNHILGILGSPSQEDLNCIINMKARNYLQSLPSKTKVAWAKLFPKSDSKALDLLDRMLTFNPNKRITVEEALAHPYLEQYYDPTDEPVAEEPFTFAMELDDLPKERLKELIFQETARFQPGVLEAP
T1 sequence (P28482 whole entry, looked up): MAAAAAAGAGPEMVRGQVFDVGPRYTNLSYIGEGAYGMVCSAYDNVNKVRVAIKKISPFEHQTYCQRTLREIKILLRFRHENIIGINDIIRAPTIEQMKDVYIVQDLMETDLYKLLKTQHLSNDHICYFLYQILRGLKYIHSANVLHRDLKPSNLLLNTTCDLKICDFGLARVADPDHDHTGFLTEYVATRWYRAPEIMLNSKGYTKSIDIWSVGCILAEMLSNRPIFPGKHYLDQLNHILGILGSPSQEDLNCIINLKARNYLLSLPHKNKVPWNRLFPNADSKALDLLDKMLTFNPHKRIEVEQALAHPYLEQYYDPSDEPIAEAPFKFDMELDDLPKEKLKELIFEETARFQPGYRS

[2] = test system: SNU-475; assay: Activation of p53 harboring A239G/T275C/A288G mutant in human SNU-475 cells assessed as upregulation of p53 phosphorylation at Ser15 residue at 5 uM incubated for 72 hrs by western blot analysis; assay type: cell-based; conditions: filed as activator
[3] = test system: Huh-7; assay: Inhibition of cell stemness in human Huh-7 cells assessed as reduction in tumor spheres count at 10 uM incubated for 72 hrs followed by incubation in sphere formation medium for 7 days by microscopic analysis; assay type: functional, cell-based; conditions: time 10.0 day
[4] = test system: Huh-7; assay: Inhibition of cell stemness in human Huh-7 cells assessed as reduction in size of tumor spheres at 10 uM incubated for 72 hrs followed by incubation in sphere formation medium for 14 days by microscopic analysis; assay type: functional, cell-based; conditions: time 17.0 day
[5] = test system: Huh-7; assay: Activation of p53 harboring C220T mutant in human Huh-7 cells at 5 uM measured after 72 hrs by Western blot analysis; assay type: cell-based
[6] = molecular target: T1, Mitogen-activated protein kinase; ERK1/ERK2 (Homo sapiens); assay: Downregulation of ERK1/2 phosphorylation at T202/Y204 residue in human Huh-7 cells at 5 uM measured after 72 hrs by Western blot analysis; assay type: cell-based
[7] = test system: HepG2; assay: Induction of apoptosis in human HepG2 cells at 5 uM measured after 72 hrs by Annexin V-FITC/propidium iodide staining based flow cytometric analysis; assay type: functional, cell-based
[8] = test system: Mahlavu; assay: Induction of apoptosis in human Mahlavu cells at 5 uM measured after 72 hrs by Annexin V-FITC/propidium iodide staining based flow cytometric analysis; assay type: functional, cell-based
[9] = test system: Mahlavu; assay: Cell cycle arrest in human Mahlavu cells assessed as increase in accumulation of cells at subG1 phase at 5 uM measured after 48 hrs by propidium iodide staining based flow cytometric analysis; assay type: functional
[10] = test system: Huh-7; assay: Induction of apoptosis in human Huh-7 cells assessed as nuclear fragmentation measured after 48 hrs by Hoechst33258 staining based inverted fluorescent microscopic method; assay type: functional, cell-based
[11] = test system: Huh-7; assay: Inhibition of cell stemness in human Huh-7 cells assessed as reduction in size of tumor spheres at 10 uM incubated for 72 hrs followed by incubation in sphere formation medium for 7 days by microscopic analysis; assay type: functional, cell-based; conditions: time 10.0 day
[12] = test system: MCF7; assay: Antiproliferative activity against human MCF7 cells assessed as reduction in cell viability measured after 72 hrs by SRB assay; assay type: functional, cell-based; conditions: MCF7, 72 h
[13] = molecular target: T2, Serine/threonine-protein kinase AKT (Homo sapiens) (UniProt P31751+Q9Y243+P31749); assay: Inhibition of Akt phosphorylation at Ser473 residue in human Mahlavu cells at 5 uM measured after 72 hrs by Western blot analysis; assay type: cell-based
T2 sequence (P31749 whole entry, looked up): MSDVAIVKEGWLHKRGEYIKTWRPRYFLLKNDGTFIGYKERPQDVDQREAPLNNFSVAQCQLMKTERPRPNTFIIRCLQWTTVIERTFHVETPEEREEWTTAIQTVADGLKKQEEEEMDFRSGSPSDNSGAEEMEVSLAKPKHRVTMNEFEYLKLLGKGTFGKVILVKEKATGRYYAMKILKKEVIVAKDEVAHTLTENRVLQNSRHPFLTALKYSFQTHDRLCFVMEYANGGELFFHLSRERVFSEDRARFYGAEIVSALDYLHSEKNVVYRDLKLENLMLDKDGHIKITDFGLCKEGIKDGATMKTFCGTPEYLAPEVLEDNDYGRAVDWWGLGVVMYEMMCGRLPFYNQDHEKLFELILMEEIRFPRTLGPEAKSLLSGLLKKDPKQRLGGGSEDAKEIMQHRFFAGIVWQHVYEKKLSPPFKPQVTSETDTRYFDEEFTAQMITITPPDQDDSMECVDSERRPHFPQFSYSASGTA
T2 sequence (P31751 whole entry, looked up): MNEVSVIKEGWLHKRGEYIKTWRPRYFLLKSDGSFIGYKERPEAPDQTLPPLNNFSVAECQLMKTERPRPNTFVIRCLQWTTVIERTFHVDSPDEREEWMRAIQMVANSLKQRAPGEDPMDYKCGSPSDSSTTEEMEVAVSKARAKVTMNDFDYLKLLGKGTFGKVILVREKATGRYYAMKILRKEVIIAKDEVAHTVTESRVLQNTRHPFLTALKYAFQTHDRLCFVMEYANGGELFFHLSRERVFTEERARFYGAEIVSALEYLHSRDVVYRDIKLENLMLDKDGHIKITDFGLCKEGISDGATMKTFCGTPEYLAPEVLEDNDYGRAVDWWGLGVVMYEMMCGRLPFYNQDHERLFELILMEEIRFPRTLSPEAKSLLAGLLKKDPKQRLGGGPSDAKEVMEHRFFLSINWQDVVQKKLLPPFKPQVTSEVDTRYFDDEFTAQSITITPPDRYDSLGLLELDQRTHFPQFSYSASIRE
T2 sequence (Q9Y243 whole entry, looked up): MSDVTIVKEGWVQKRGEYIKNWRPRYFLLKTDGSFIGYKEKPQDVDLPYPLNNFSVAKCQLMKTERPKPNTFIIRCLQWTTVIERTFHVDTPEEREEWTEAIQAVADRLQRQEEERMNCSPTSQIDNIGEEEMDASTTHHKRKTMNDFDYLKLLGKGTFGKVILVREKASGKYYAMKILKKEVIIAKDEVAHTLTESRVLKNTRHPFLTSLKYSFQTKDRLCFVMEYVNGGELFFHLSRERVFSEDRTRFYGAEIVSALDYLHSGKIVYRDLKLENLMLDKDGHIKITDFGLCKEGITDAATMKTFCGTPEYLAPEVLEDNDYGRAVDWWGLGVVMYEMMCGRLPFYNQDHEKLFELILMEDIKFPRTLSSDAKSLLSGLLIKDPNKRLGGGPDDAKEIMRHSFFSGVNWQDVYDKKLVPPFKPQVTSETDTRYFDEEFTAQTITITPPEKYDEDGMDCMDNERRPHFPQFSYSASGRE

[14] = test system: SNU-475; assay: Induction of apoptosis in human SNU-475 cells at 5 uM measured after 72 hrs by Annexin V-FITC/propidium iodide staining based flow cytometric analysis; assay type: functional, cell-based
[15] = test system: Mahlavu; assay: Cell cycle arrest in human Mahlavu cells assessed as increase in accumulation of cells at G0/G1 phase at 5 uM measured after 48 hrs by propidium iodide staining based flow cytometric analysis; assay type: functional
[16] = test system: Mahlavu; assay: Activation of p53 harboring G249T mutant in human Mahlavu cells assessed as upregulation of p21 protein expression at 5 uM incubated for 72 hrs by western blot analysis; assay type: cell-based
[17] = test system: SNU-475; assay: Induction of apoptosis in human SNU-475 cells assessed as apoptotic body formation measured after 48 hrs by Hoechst33258 staining based inverted fluorescent microscopic method; assay type: functional, cell-based
[18] = test system: SNU-475; assay: Induction of apoptosis in human SNU-475 cells assessed as chromatin condensation measured after 48 hrs by Hoechst33258 staining based inverted fluorescent microscopic method; assay type: functional, cell-based
[19] = test system: Huh-7; assay: Inhibition of cell stemness in human Huh-7 cells assessed as reduction in tumor spheres count at 10 uM incubated for 72 hrs followed by incubation in sphere formation medium for 14 days by microscopic analysis; assay type: functional, cell-based; conditions: time 17.0 day
[20] = test system: Mahlavu; assay: Antiproliferative activity against human Mahlavu cells assessed as reduction in cell viability measured after 72 hrs by SRB assay; assay type: functional, cell-based
[21] = test system: Huh-7; assay: Induction of apoptosis in human Huh-7 cells assessed as apoptotic body formation measured after 48 hrs by Hoechst33258 staining based inverted fluorescent microscopic method; assay type: functional, cell-based
[22] = test system: Mahlavu; assay: Inhibition of cell stemness in human Mahlavu cells assessed as decrease in NANOG level at 10 uM measured after 72 hrs by flow cytometry analysis; assay type: functional, cell-based
[23] = test system: Mahlavu; assay: Antiproliferative activity against human Mahlavu cells assessed as reduction in cell viability measured after 90 hrs by RT-CES analysis; assay type: functional, cell-based
[24] = test system: Huh-7; assay: Antiproliferative activity against human Huh-7 cells assessed as reduction in cell viability measured after 40 to 150 hrs by RT-CES analysis; assay type: functional, cell-based; conditions: time 40-150 hrs
[25] = test system: Huh-7; assay: Inhibition of cell stemness in human Huh-7 cells assessed as decrease in OCT4 mRNA level at 10 uM measured after 72 hrs by RT-qPCR analysis; assay type: functional, cell-based
[26] = test system: HepG2; assay: Cell cycle arrest in human HepG2 cells assessed as increase in accumulation of cells at G0/G1 phase at 5 uM measured after 48 hrs by propidium iodide staining based flow cytometric analysis; assay type: functional
[27] = test system: HepG2; assay: Induction of apoptosis in human HepG2 cells assessed as nuclear fragmentation measured after 48 hrs by Hoechst33258 staining based inverted fluorescent microscopic method; assay type: functional, cell-based
[28] = test system: Huh-7; assay: Inhibition of cell stemness in human Huh-7 cells assessed as decrease in OCT4 level at 10 uM measured after 72 hrs by flow cytometry analysis; assay type: functional, cell-based
[29] = test system: Mahlavu; assay: Induction of apoptosis in human Mahlavu cells assessed as apoptotic body formation measured after 48 hrs by Hoechst33258 staining based inverted fluorescent microscopic method; assay type: functional, cell-based
[30] = test system: Mahlavu; assay: Induction of apoptosis in human Mahlavu cells assessed as chromatin condensation measured after 48 hrs by Hoechst33258 staining based inverted fluorescent microscopic method; assay type: functional, cell-based
[31] = test system: SNU-475; assay: Cell cycle arrest in human SNU-475 cells assessed as increase in accumulation of cells at S phase at 5 uM measured after 48 hrs by propidium iodide staining based flow cytometric analysis; assay type: functional
[32] = test system: Mahlavu; assay: Antiproliferative activity against human Mahlavu cells assessed as reduction in cell viability measured for 180 hrs by RT-CES analysis; assay type: functional, cell-based; conditions: dose 2.5-10 µM
[33] = test system: Huh-7; assay: Induction of apoptosis in human Huh-7 cells at 5 uM measured after 72 hrs by Annexin V-FITC/propidium iodide staining based flow cytometric analysis; assay type: functional, cell-based
[34] = test system: Huh-7; assay: Cell cycle arrest in human Huh-7 cells assessed as increase in accumulation of cells at G2/M phase at 5 uM measured after 48 hrs by propidium iodide staining based flow cytometric analysis; assay type: functional
[35] = molecular target: T2, Serine/threonine-protein kinase AKT (Homo sapiens); assay: Inhibition of Akt phosphorylation at Ser473 residue in human HepG2 cells at 5 uM measured after 72 hrs by Western blot analysis; assay type: cell-based
[36] = molecular target: T1, Mitogen-activated protein kinase; ERK1/ERK2 (Homo sapiens); assay: Downregulation of ERK1/2 phosphorylation at T202/Y204 residue in human SNU-475 cells at 5 uM measured after 72 hrs by Western blot analysis; assay type: cell-based
[37] = test system: Huh-7; assay: Antiproliferative activity against human Huh-7 cells assessed as reduction in cell viability measured for 180 hrs by RT-CES analysis; assay type: functional, cell-based; conditions: dose 2.5-10 µM
[38] = test system: Huh-7; assay: Antiproliferative activity against human Huh-7 cells assessed as reduction in cell viability measured after 72 hrs by SRB assay; assay type: functional, cell-based; conditions: Huh-7, 72 h

| Structure (SMILES) | inhibition [1] | Activity [2] | inhibition [3] | inhibition [4] | Activity [5] | inhibition [6] | Activity [7] | Activity [8] | Activity [9] | Activity [10] | inhibition [11] | IC50 [12] [nM] | inhibition [13] | Activity [14] | Activity [15] | Activity [16] | Activity [17] | Activity [18] | inhibition [19] | IC50 [20] [nM] | also measured |
| --- | --- | --- | --- | --- | --- | --- | --- | --- | --- | --- | --- | --- | --- | --- | --- | --- | --- | --- | --- | --- | --- |
| N#Cc1cccc(COc2ccc(-c3cc(CN4CCN(Cc5ccc(C(F)(F)F)cc5)CC4)no3)cc2F)c1 | Active | Active | Active | Active | inactive | Active | Active | Active | Active | Active | Active | 380 | Active | Active | Active | inactive | Active | Active | Active | 500 | Activity [21]: Active; inhibition [22]: Active; Activity [23]: Active; Activity [24]: Active; inhibition [25]: Active; Activity [26]: Active; Activity [27]: Active; inhibition [28]: inactive; Activity [29]: Active; Activity [30]: Active; Activity [31]: Active; Activity [32]: Dose-Dependent Effect; Activity [33]: Active; Activity [34]: Active; inhibition [35]: inactive; inhibition [36]: Active; Activity [37]: Dose-Dependent Effect; IC50 [38]: 90 nM |
| FC(F)(F)c1ccc(CN2CCN(Cc3cc(-c4ccc(OCc5ccccc5)cc4)on3)CC2)cc1 | Active | Active | Active | Active | inactive | Active | Active | Active | Active | Active | Active | 2900 | Active | Active | Active | inactive | Active | Active | Active | 11700 | Activity [21]: Active; inhibition [22]: Active; Activity [23]: Active; Activity [24]: Active; inhibition [25]: Active; Activity [26]: Active; Activity [27]: Active; inhibition [28]: inactive; Activity [29]: Active; Activity [30]: Active; Activity [31]: Active; Activity [32]: Dose-Dependent Effect; Activity [33]: Active; Activity [34]: Active; inhibition [35]: inactive; inhibition [36]: Active; Activity [37]: Dose-Dependent Effect; IC50 [38]: 1700 nM |
